Values quoted from earlier work, collected in patent US8193226B2, “Candesartan cilexetil” (Zhejiang Huahai Pharmaceutical Co., Ltd., priority 2007, dated 2012).
Where two headings read alike, the source gives them in different places.

What was measured:
[1] = not given; remark: listed apart in the source
[2] = not given; remark: listed apart in the source

## CCOc1nc2cccc(C(=O)OC(C)OC(=O)OC3CCCCC3)c2n1Cc1ccc(-c2ccccc2-c2nn[nH]n2)cc1 (stereo not drawn) [candesartan cilexetil]
In the presence of other pharmaceutically acceptable additives, or at granulation or tableting
  stability when processed into a tablet: tends to decompose
Isolated form, exposed to increased temperatures, humidity and light
  stability of the drug as such: stable
[1]; alcoholic solvents
  solubility in alcoholic solvents: readily soluble
[1]; water
  solubility in water: practically insoluble
[2]; solution
  bioavailability: 40%
[2]; tablet
  bioavailability: 15%
